The assay concerns alcohol preferring rats. Kind of assay: Alcohol Preferring Rats In Vivo Model, acute oral dosing, two-bottle choice. Further details: species or system rat. To be noted: for Alcohol Intake / Alcohol Preference: mean ± S.E.M., N = 14. Here is the method:
Adult male selectively-bred alcohol preferring rats (N=14) were used. This particular strain of alcohol drinking rat has been characterized and have been widely used to study the effects of different compounds on voluntary alcohol intake (Farren et al., 2000; Rezvani et al, 1990, 1991, 1992a, 1992b, 1999, 2000, 2003; Murphy et al, 1988; Overstreet et al., 2003, 1999; Li and McBride, 1990). Rats were housed individually in approved cages under a constant room temperature of 22+1° C. and 12:12 light-dark cycle (8:00-20:00, dark). Animal were fed Agway Prolab Rat/Mouse/Hamster 3000 formula and water ad libitum.
Alcohol intake was determined using the standard two-bottle choice method utilized in our and other laboratories for many years (Murphy et al. 1988; Rezvani et al. 1990, 1991, 1993, 1995, 1997, Rezvani and Grady, 1994, Rezvani et al., 1993). Animals were first given free access to water in a graduated Richter tube for 2 days. Next, they were given access to only a solution of 10% (v/v) ethanol for 3 consecutive days. During this period animals became accustomed to drinking from Richter tubes and to the taste and pharmacological effects of alcohol. Thereafter, they were given free access to both water and a solution of 10% alcohol for at least 4 consecutive weeks and throughout of the period of study. Rats had free access to food. Water and alcohol intake were recorded at 6 and 24 hour after the treatment, whereas food intake was measured at 24 hour. Animals' body weights were measured the day of the treatment and the day after.
After establishment of stable baseline for alcohol, food, and water intake, rats were administered (gavage) at 9:30 a.m. either with the vehicle or the compound of formula (I) at one of four doses (1,3,10 and 30 mg/kg) using a cross-over design with random assignment. To be able to compare the efficacy of the compound of formula (I) on alcohol intake naltrexone was included as a positive control. The same rats were given an oral dose of 20 mg/kg naltrexone. All animals will receive all treatments in a random order. The interval between treatments was at least 1 week. Alcohol and water intake were recorded 6 and 24 h after the drug administration and food intake was recorded at 24 hr. The volume of the drug administration was 6 ml/kg.
The results at 6 and 24 hours post-dosing are presented in Tables 3 and 4 below, as means ±SEM. Alcohol intake (g/kg) was calculated by multiplying the volume of alcohol consumed in ml by 10% and 0.7893 (ethanol density)/body weight in kg. Alcohol preference, expressed as a percentage, was calculated as follows (volume of alcohol consumed in ml/total fluid intake in ml)×100 (Rezvani and Grady, 1994; Rezvani et al., 1997). Statistical differences between drug-treated and control groups were determined by using ANOVA with repeated measures. Each treatment was compared with the corresponding vehicle value.

The mark [1] stands for this setting: 1 mg/kg p.o., 6 hrs post-dosing.
The mark [2] stands for this setting: 1 mg/kg p.o., 24 hrs post-dosing.
Where [3] appears, read: 3 mg/kg p.o., 6 hrs post-dosing.
Setting [4] is: 3 mg/kg p.o., 24 hrs post-dosing.
Setting [5] is: 10 mg/kg p.o., 6 hrs post-dosing.
[6] abbreviates: 10 mg/kg p.o., 24 hrs post-dosing.
Where [7] appears, read: 30 mg/kg p.o, 6 hrs post-dosing.
Setting [8] is: 30 mg/kg p.o, 24 hrs post-dosing.
[9] abbreviates: 20 mg/kg p.o., 6 hrs post-dosing.
[10] abbreviates: 20 mg/kg p.o., 24 hrs post-dosing.

Structures are written as SMILES.

With `Cc1cccc2cccc(CN3CCC4(CC3)C(=O)N(C[C@H](O)CN)CN4c3ccc(F)cc3)c12` [Cmpd (I-A), 3-(3-amino-2-(R)-hydroxy-propyl)-1-(4-fluoro-phenyl)-8-(8-methyl-naphthalen-1-ylmethyl)-1,3,8-triazaspiro[4.5]decan-4-one], the “Alcohol Intake” value reads like this: under setting [1], 1.85 ± 0.234 g/kg; under setting [2], 4.95 ± 0.389 g/kg; under setting [3], 1.53 ± 0.184 g/kg; under setting [4], 4.43 ± 0.339 g/kg; under setting [5], 1.59 ± 0.238 g/kg; under setting [6], 4.73 ± 0.351 g/kg. For the same compound, the “Alcohol Intake” value was 0.905 ± 0.198 g/kg under setting [7] and 3.16 ± 0.582 g/kg under setting [8]. The “Alcohol Preference” value by setting is: under setting [1], 75.1 ± 5.60%; under setting [2], 80.4 ± 4.68%; under setting [3], 61.6 ± 6.19%; under setting [4], 68.9 ± 4.87%; under setting [5], 62.4 ± 6.33%; under setting [6], 71.7 ± 3.56%. The “Alcohol Preference” value under setting [7] came out at 46.7 ± 8.20% and the “Alcohol Preference” value under setting [8] was determined as 50.1 ± 7.77%. Moreover, the “Alcohol preference compared with vehicle” value is reported as “reduced alcohol preference” (30 mg/kg, both 6 hours and 24 hours post-dosing); “did not significantly affect alcohol preference” (other doses (1, 3, 10 mg/kg), 6 hours and 24 hours post-dosing). In addition, the “Alcohol intake compared with vehicle” value is on record as “significantly reduced alcohol intake” (acute oral administration of 3, 10 and 30 mg/kg, at 6 hr); “statistically significantly (p<0.0002) in reducing alcohol intake” (at 24 hr, only "the mg/kg dose" (dose figure missing)).

With `O=C1CC[C@@]2(O)[C@H]3Cc4ccc(O)c5c4[C@@]2(CCN3CC2CC2)[C@H]1O5` [Naltrexone, naltrexone, reference compound], under setting [9], the “Alcohol Intake” value was 1.19 ± 0.25 g/kg and the “Alcohol Preference” value came to 46.8 ± 7.91%. For the same compound, under setting [10], the “Alcohol Intake” value was 3.64 ± 0.545 g/kg and the “Alcohol Preference” value is reported as 58.8 ± 6.77%. The “Alcohol intake compared with vehicle” value (naltrexone 20 mg/kg oral, 24 hr post-dosing) was “remained statistically significantly (p<0.0028) in reducing alcohol intake”. Moreover, the “Alcohol preference compared with vehicle” value (naltrexone 20 mg/kg oral, both 6 hours and 24 hours post-dosing) was “reduced alcohol preference”.
